We go through 58 compounds from US7238697B2, “Pyridylpyrimidines for use as pesticides” (Bayer CropScience AG, priority 2001, dated 2007).

SMILES strings stand for the structures.

Series [1] concerns peach aphids (Myzus persicae). Put plainly: Myzus test (cabbage leaves dipped). The format is in vivo. The conditions noted are these: 144 h, after 6 d, read-out: Kill rate in % after 6 d; for pest or weed control at 500 ppm: solvent 7 parts DMF, emulsifier 2 parts (Table D-2); for pest or weed control at 1000 ppm / pest or weed control at 100 ppm: solvent 30 parts DMF, emulsifier 1 part (Table D-1). On the procedure: To produce a suitable preparation of active compound, 1 part by weight of active compound is mixed with the stated amounts of solvent and emulsifier, and the concentrate is diluted with emulsifier-containing water to the desired concentration. Cabbage leaves (Brassica oleracea) which are heavily infested by peach aphids (Myzus persicae) are treated by being dipped into the preparation of the active compound of the desired concentration. After the desired period of time, the kill in % is determined. 100% means that all aphids have been killed; 0% means that none of the aphids has been killed.

A short description of series [2]: log P determination by HPLC (reversed-phase C18), EEC Directive 79/831 Annex V.A8. The format is physicochemical. The conditions noted are these: reversed-phase C18 HPLC column; pH 2.3; HPLC, reversed-phase C 18, 43° C., 0.1% aqueous phosphoric acid/acetonitrile; read-out: log P (pH 2.3).

Take `O=C(CSc1nccc(-c2ccccn2)n1)OC1CS(=O)(=O)C1` [drawing 432]: in series [1], the pest or weed control at 500 ppm was 100%.

Consider `CCOC(=O)CSc1nccc(-c2ccc(C)cn2)n1` [drawing 440], for which, in series [1], the pest or weed control at 500 ppm stood at 98%. Turning to `CCOC(=O)CSc1nccc(-c2cc(OC)ccn2)n1` [drawing 439], in series [1], the pest or weed control at 500 ppm worked out at 90%. As for `CCOC(=O)CSc1nccc(-c2ccccn2)n1` [drawing 416], the pest or weed control at 1000 ppm in series [1] was found to be 100%. With `CC(=O)NCC(C)OC(=O)CSc1nccc(-c2ccccn2)n1` (stereo not shown) [drawing 433], the pest or weed control at 500 ppm in series [1] is 95%. Turning to `CC(C)OC(=O)C(C)OC(=O)CSc1nccc(-c2ccccn2)n1` (stereo not shown) [drawing 434], in series [1], the pest or weed control at 500 ppm came to 95%.

Regarding `COC(=O)CSc1nccc(-c2ccccn2)n1` [drawing 415], in series [1], the pest or weed control at 100 ppm was 100%.

Take `CC(C)(C)SC(=O)CSc1nccc(-c2ccccn2)n1` [drawing 438]: the pest or weed control at 500 ppm in series [1] stood at 95%.

Regarding `O=C(CSc1nccc(-c2ccccn2)n1)OC1CCCCC1` [drawing 420], the pest or weed control at 1000 ppm in series [1] came to 100%.

Regarding `O=C(CSc1nccc(-c2ccccn2)n1)OC1COC1` [drawing 436], the pest or weed control at 500 ppm in series [1] was 95%. Regarding `O=C(O)CSc1nccc(-c2ccccn2)n1` [drawing 424], the pest or weed control at 1000 ppm in series [1] came to 100%. Take `COC(=O)C(Sc1nccc(-c2ccccn2)n1)C(=O)OC` [drawing 421]: the pest or weed control at 100 ppm in series [1] stood at 95%. As for `CCOC(=O)C1CC1COC(=O)CSc1nccc(-c2ccccn2)n1` (stereo not shown) [drawing 429], in series [1], the pest or weed control at 500 ppm came to 98%. In the case of `CSC(C)COC(=O)CSc1nccc(-c2ccccn2)n1` (stereo not shown) [Example 203], the chromatographic logP in series [2] stood at 2.78. On to `CCCCCCCCCCOC(=O)CSc1nccc(-c2ccccn2)n1` [Example 85], for which the chromatographic logP in series [2] came to 6.15. `CN(C(=O)CSc1nccc(-c2ccccn2)n1)c1ccc(Cl)cc1` [Example 3, N-(4-chlorophenyl)-N-methyl-2-{[4-(2-pyridinyl)-2-pyrimidinyl]thio}acetamide]: the chromatographic logP in series [2] stood at 2.73. On to `CCOC(=O)CSc1nccc(-c2ccc(C)cn2)n1` [Example 128], for which, in series [2], the chromatographic logP is 2.5. Still for that read-out and setting: the value for `CC1CN(C(=O)CSc2nccc(-c3ccccn3)n2)CC(C)O1` (stereo not shown) [Example 60] was 1.94; that for `O=C(CSc1nccc(-c2ccccn2)n1)OCCN1CCNC1=S` [Example 160] was 1.59; that for `CN(Cc1ccc(Cl)nc1)C(=O)CSc1nccc(-c2ccccn2)n1` [Example 49] was 2.01.

As to `CCOC(=O)CSc1nccc(-c2cccc(OCC)n2)n1` [Example 104], in series [2], the chromatographic logP was found to be 3.67. As for `O=C(CSc1nccc(-c2ccccn2)n1)N1CCCCC1` [Example 66], in series [2], the chromatographic logP stood at 2.09. The same measure, in the same setting: to `CCC(=O)NCCCOC(=O)CSc1nccc(-c2ccccn2)n1` [Example 216] belongs 2.04.

`COC(=O)CCCSc1nccc(-c2ccccn2)n1` [Example 76]: in series [2], the chromatographic logP was 2.35. `O=C(CSc1nccc(-c2ccccn2)n1)OCC(F)(F)C(F)(F)F` [Example 118]: the chromatographic logP in series [2] is 3.24. For `Cc1ccc(CCNC(=O)CSc2nccc(-c3ccccn3)n2)cc1` [Example 56], the chromatographic logP in series [2] was determined as 2.56. On the same count and under the same terms, to `O=C(CSc1nccc(-c2ccccn2)n1)NCc1ccccn1` [Example 62] belongs 1.14; to `CC(C)(F)COC(=O)CSc1nccc(-c2ccccn2)n1` [Example 196], 2.66; to `O=C(CSc1nccc(-c2ccccn2)n1)OCCCCOc1ccccc1` [Example 88], 3.86. Consider `CC(CN1CCOCC1)OC(=O)CSc1nccc(-c2ccccn2)n1` (stereo not shown) [Example 161], for which, in series [2], the chromatographic logP worked out at 1.16. Still for that read-out and setting: to `CC(=O)OCCCCCOC(=O)CSc1nccc(-c2ccccn2)n1` [Example 93] belongs 2.82. Take `O=C(NCCCOC(=O)CSc1nccc(-c2ccccn2)n1)Nc1ccc(C(F)(F)F)cc1` [Example 153]: the chromatographic logP in series [2] stood at 3.2. For the compound `O=C(CSc1nccc(-c2ccccn2)n1)OCCn1ccnn1` [Example 210], the chromatographic logP in series [2] is 1.42. Consider `O=C(CSc1nccc(-c2ccccn2)n1)NCCc1cccc(C(F)(F)F)c1` [Example 42], for which, in series [2], the chromatographic logP stood at 2.82. Same read-out and setting: to `CC1(CCCOC(=O)CSc2nccc(-c3ccccn3)n2)OCCO1` [Example 303] belongs 2.57; to `O=C(CSc1nccc(-c2ccccn2)n1)NC1CCCCC1` [Example 63], 2.31. As to `CC(C)(C)OC(=O)NCCOC(=O)CSc1nccc(-c2ccccn2)n1` [Example 141], the chromatographic logP in series [2] came to 2.63. In the case of `O=C(CSc1nccc(-c2ccccn2)n1)OCC1COC(=O)O1` (stereo not shown) [Example 192], the chromatographic logP in series [2] is 1.63. For `Cc1cccc(CNC(=O)CSc2nccc(-c3ccccn3)n2)c1` [Example 59], the chromatographic logP in series [2] is 2.29. On to `CCOC(=O)c1cc(NC(=O)NCCOC(=O)CSc2nccc(-c3ccccn3)n2)ccc1Cl` [Example 150], for which the chromatographic logP in series [2] was found to be 4.95. Consider `CC(C)COC(=O)c1cccc(NC(=O)NCCOC(=O)CSc2nccc(-c3ccccn3)n2)c1` [Example 149], for which the chromatographic logP in series [2] came out at 3.01.

Consider `O=C(CSc1nccc(-c2ccccn2)n1)OCC1CCCC1` [Example 154], for which the chromatographic logP in series [2] came out at 3.6. For the compound `CCOC(=O)CSc1nccc(-c2ncccc2C(F)(F)F)n1` [Example 269], the chromatographic logP in series [2] was determined as 2.53. In the case of `CC(C)(C)C1(COC(=O)CSc2nccc(-c3ccccn3)n2)COC1` [Example 211], the chromatographic logP in series [2] is 2.75.

`CCOC(=O)CSc1nc(C)cc(-c2ccccn2)n1` [Example 4, ethyl {[4-methyl-6-(2-pyridinyl)-2-pyrimidinyl]thio}acetate]: the chromatographic logP in series [2] came out at 2.45. As for `O=C(CSc1nccc(-c2ccccn2)n1)OC(C(F)(F)F)C(F)(F)F` [Example 120], the chromatographic logP in series [2] is 3.59. Consider `COC(=O)CSc1nc(-c2ccccn2)cc(C(F)(F)F)n1` [Example 114], for which, in series [2], the chromatographic logP was 3.34. Still for that read-out and setting: to `Cn1nnnc1CSc1nccc(-c2ccccn2)n1` [Example 301] belongs 1.24; to `O=C(CSc1nccc(-c2ccccn2)n1)OCCn1cncn1` [Example 209], 1.32. `O=C(CSc1nccc(-c2ccccn2)n1)NCc1ccc(Cl)cc1` [Example 54]: the chromatographic logP in series [2] stood at 2.38. `CCOC(=O)C(OC(=O)CSc1nccc(-c2ccccn2)n1)C(C)C` (stereo not shown) [Example 243]: in series [2], the chromatographic logP was found to be 3.2. Consider `O=C(CSc1nccc(-c2ccccn2)n1)OCC1CCC(=O)O1` (stereo not shown) [Example 206], for which the chromatographic logP in series [2] amounted to 1.64. Same read-out and setting: to `CS(=O)(=O)NC(=O)CSc1nccc(-c2ccccn2)n1` [Example 140] belongs 1.13. In the case of `O=C(NCCCOC(=O)CSc1nccc(-c2ccccn2)n1)Nc1ccc(Cl)cc1Cl` [Example 139], the chromatographic logP in series [2] was 3.2.

`O=C(CSc1nccc(-c2ccccn2)n1)OCC(F)=C(Cl)Cl` [Example 253]: the chromatographic logP in series [2] amounted to 3.19. For the compound `CC(=O)NCC(C)OC(=O)CSc1nccc(-c2ccccn2)n1` (stereo not shown) [Example 188], in series [2], the chromatographic logP is 1.97. As to `CCOCCOC(=O)CSc1nccc(-c2ccccn2)n1` [Example 98], the chromatographic logP in series [2] worked out at 2.34. Turning to `O=C(CSc1nccc(-c2ccccn2)n1)OCCCN1CCCCC1` [Example 110], the chromatographic logP in series [2] was 1.13.
